Results taken from paper PMC12592502, “Unraveling the mechanisms behind the enhanced efficacy of β-lactam-based sideromycins” (Communications Biology, 2025).
Converted amounts (≈) assume the structure as drawn. Read-outs that look alike come from different tables or passages of the source.

Legend:
E. coli ATCC 25922 = assay: MIC, broth microdilution (CLSI); assay type: cell-based, Escherichia coli; conditions: for MIC ratio 0/1: 0 and 1 µg/mL supplemental iron (Table S2); for MIC ratio 1/0: 1 versus 0 µg/mL supplemental iron (peer review file table)
Description: (§1) All bacterial strains (see description and sources Table S1) were stored at −80 °C, and grown on tryptone soya agar (TSA) at 35 °C. The iron-deprived (ID)-MHBCA (cation-adjusted Muller-Hinton Broth, Becton Dickinson, Mississauga, ON, Canada) medium was prepared as reported by refs. [21],[50]. Briefly, MHBCA was treated with 10% Chelex® 50-100 mesh (Sigma) and stirred for 6 h at room temperature. The resin was removed by filtration. Divalent Ca^2+ (CaCl2), Mg^2+ (MgCl2), and Zn^2+(ZnSO4), were then added in the iron-depleted medium at 22, 12, and 1 μg/ml respectively. Finally, the pH was adjusted to 7.3, and the medium was sterilized with a 0.2-μm filter. Regular MHBCA (i.e., not treated with Chelex®) was used to compare the inhibitory activity of conjugates in iron-sufficient conditions.
(§2) Minimal inhibitory concentrations (MICs) were performed using a broth microdilution technique according to the Clinical and Laboratory Standards Institute (CLSI) guidelines. MICs were determined in MHBCA and in ID-MHBCA. To check the impact of β-lactamases, MICs in the presence of a β-lactamase inhibitor were also determined. The inhibitor was homogenized at 2X the final concentration and added to the bacterial inoculum just before distributing cells into the wells containing the drug dilutions. The final concentration of each inhibitor was 4 μg/mL for clavulanic acid (tested against K. pneumoniae) and 200 μg/mL for 3-aminophenylboronic acid (tested against P. aeruginosa and A. baumannii).

K. pneumoniae ATCC 13883 = assay: MIC, broth microdilution (CLSI); assay type: cell-based, Klebsiella pneumoniae; conditions: for MIC ratio 0/1: 0 and 1 µg/mL supplemental iron (Table S2); for MIC ratio 1/0: 1 versus 0 µg/mL supplemental iron (peer review file table); for MIC with β-lactamase inhibitor (βI): + 4 μg/mL clavulanic acid
Description: as §1, with “conditions. The resin used for Chelex treatment was always fresh and had never been regenerated, ensuring consistent iron removal.” for “conditions.”
as §2

E. coli ΔcirA = assay: MIC, Keio mutant; assay type: cell-based, Escherichia coli
Description: as §1, §2

E. coli ΔfhuA = assay: MIC, Keio mutant; assay type: cell-based, Escherichia coli
Description: as §1, §2

E. coli Δfiu = assay: MIC, Keio mutant; assay type: cell-based, Escherichia coli
Description: as §1, §2

E. coli ΔampC = assay: MIC, Keio mutant; assay type: cell-based, Escherichia coli
Description: as §1, with “conditions. The resin used for Chelex treatment was always fresh and had never been regenerated, ensuring consistent iron removal.” for “conditions.”
as §2

E. coli ΔacrAB = assay: MIC, efflux pump mutant; assay type: cell-based, Escherichia coli
Description: as §2

P. aeruginosa 1020 = assay: MIC, parent of efflux pump mutants; assay type: cell-based, Pseudomonas aeruginosa
Description: as §2

PBP2 = PBP2 (Klebsiella pneumoniae, UniProt A6T696); assay: Membrane PBP binding assay, competition with Bocillin FL; set-up: species or system K. pneumoniae ATCC 13883
Sequence of PBP2 (A6T696 entry or part of it): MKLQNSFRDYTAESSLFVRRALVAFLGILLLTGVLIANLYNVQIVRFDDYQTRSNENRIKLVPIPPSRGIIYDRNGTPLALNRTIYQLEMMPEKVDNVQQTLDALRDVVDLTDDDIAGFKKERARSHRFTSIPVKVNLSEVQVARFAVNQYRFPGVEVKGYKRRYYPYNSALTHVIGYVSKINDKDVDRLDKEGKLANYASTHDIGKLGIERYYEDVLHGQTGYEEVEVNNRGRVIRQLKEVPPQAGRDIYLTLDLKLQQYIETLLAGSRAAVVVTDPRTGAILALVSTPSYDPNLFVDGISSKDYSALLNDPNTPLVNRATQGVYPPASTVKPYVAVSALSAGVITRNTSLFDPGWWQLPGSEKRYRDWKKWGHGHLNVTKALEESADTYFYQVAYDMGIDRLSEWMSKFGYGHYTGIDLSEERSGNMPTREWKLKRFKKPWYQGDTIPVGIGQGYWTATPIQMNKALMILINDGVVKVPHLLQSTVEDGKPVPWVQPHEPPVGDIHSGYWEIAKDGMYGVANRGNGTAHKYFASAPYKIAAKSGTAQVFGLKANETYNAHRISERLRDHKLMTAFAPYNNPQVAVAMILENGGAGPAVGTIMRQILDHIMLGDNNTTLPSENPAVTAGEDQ
Description: Membrane extracts containing PBPs were obtained as described above. Briefly, all species were grown in 1 L of TSB until the OD600 reached 0.9. The washed pellet was incubated with lysozyme (400 μg/mL), DNase (10 μg/mL) RNase(10 μg/mL) and anti-protease cocktail (200 mg/20 mL). Lysis was done with a French press (20,000 psi) and membrane protein were pelleted by ultracentrifugation steps (100,000 × g). The pellet was suspended in a minimal volume (300–500 μL) of KP 0.05 M buffer at pH 7. The protein concentration in the membrane preparations was determined with the Micro BCA TM Protein Assay Kit (Thermo Fisher Scientific, Rockford, IL) using bovine serum albumin as a standard.
The PBP binding assay was done as described previously[36],[56],[57]. For each antibiotic concentration tested, a quantity of 25 to 40 μg of membrane preparation was used as the source of PBPs, depending on the species. For the purified PaPBP3, 150 ng was used in the assay. First, increasing concentrations of the test antibiotic was added to the membrane or purified PaPBP3 preparations and incubated for 10 min at 30 °C. The reporter molecule Bocillin FL was then added at 12.5 μM for the membrane PBPs preparations and at 500 nM for the pure PaPBP3 samples for an additional 20 min at 30 °C. All reactions were stopped with the addition of the Laemmli-loading buffer (Bio-Rad) containing fresh β-mercaptoethanol (Sigma). All reactions were then heated at 100°C for 3 min before migration on SDS-polyacrylamide discontinuous gel system (7.5% stacking and 10% separating). Control samples without Bocillin FL were also included to highlight autofluorescent proteins that are not PBPs.
To be able to visualize labeled PBPs after electrophoresis, gels were rinsed in water and fixed in a solution of 50% methanol and 7% acetic acid for 30 min. The fluorescent images of gels were obtained with the Typhoon FLA 9500 instrument (GE-Healthcare Bio-Sciences Inc., Baie-d’Urfé, QC, CA) using a 473 nm excitation wavelength. To obtain quantifiable data, the software Quantity One 1D analysis was used (version 4.6.6; Bio-Rad Laboratories, Richmond, CA). The volume (intensity × constant area) of each PBP was measured. […] All IC50 data were obtained from at least two independent PBP binding assays using two different sets of compound concentrations using a linear regression. The PBP profiles were confirmed, and the PBP numbering were determined using published data and individual molecular weights. […] For example, amdinocillin (Sigma) was used for PBP2 identification. […] The IC50 for PBP 2 of P. aeruginosa was measured by including the SDS-PAGE comigrating autofluorescent protein in the background, as done previously.

[1] = Escherichia coli, ATCC25922, ID-MHBCA + 0.1 µg/mL supplemental iron
[2] = Escherichia coli, ATCC25922, MHBCA (+)
[3] = Escherichia coli, ATCC25922, iron-deprived ID-MHBCA (−), 0 µg/mL supplemental iron
[4] = Klebsiella pneumoniae, ATCC13883, ID-MHBCA (−), 0 µg/mL supplemental iron
[5] = Klebsiella pneumoniae, ATCC13883, ID-MHBCA + 0.1 µg/mL supplemental iron
[6] = Klebsiella pneumoniae, ATCC13883, ID-MHBCA + 1 µg/mL supplemental iron
[7] = Klebsiella pneumoniae, ATCC13883, MHBCA (+)
[8] = K. pneumoniae ATCC 13883 membranes, read-out: IC50 PBP2
[9] = ID-MHBCA + 0.1 µg/mL supplemental iron
[10] = ID-MHBCA + 1 µg/mL supplemental iron

Compound | MIC (E. coli ATCC 25922; [1]) [µM] | MIC (E. coli ATCC 25922; [2]) [µM] | MIC (E. coli ATCC 25922; [3]) [µM] | MIC ratio 0/1 (E. coli ATCC 25922; ID-MHBCA) | MIC ratio 1/0 (E. coli ATCC 25922; ID-MHBCA) | MIC ratio 0/1 (K. pneumoniae ATCC 13883; ID-MHBCA) | MIC ratio 1/0 (K. pneumoniae ATCC 13883; ID-MHBCA) | MIC with β-lactamase inhibitor (βI) (K. pneumoniae ATCC 13883; ID-MHBCA) [µM] | MIC (K. pneumoniae ATCC 13883; [4]) [µM] | MIC (K. pneumoniae ATCC 13883; [5]) [µM] | MIC (K. pneumoniae ATCC 13883; [6]) [µM] | MIC (K. pneumoniae ATCC 13883; [7]) [µM] | MIC with β-lactamase inhibitor (βI) (K. pneumoniae ATCC 13883; MHBCA) [µM] | MIC (E. coli ΔcirA; Escherichia coli, ID-MHBCA) [µM] | MIC (E. coli ΔcirA; Escherichia coli, MHBCA) [µM] | MIC (E. coli ΔfhuA; Escherichia coli, ID-MHBCA) [µM] | MIC (E. coli ΔfhuA; Escherichia coli, MHBCA) [µM] | MIC (E. coli ΔfhuA; MHBCA) [µM] | MIC (E. coli Δfiu; Escherichia coli, ID-MHBCA) [µM] | MIC (E. coli Δfiu; Escherichia coli, MHBCA) [µM] | further results
O=C(CN(CCCCNC(=O)c1cccc(O)c1O)C(=O)c1cccc(O)c1O)NC(C(=O)NC1C(=O)N2C(C(=O)O)=C(Cl)CCC12)c1ccccc1 (centres unmarked) [BLOR, bis-catechol (azotochelin)-loracarbef] | 0.05 | 0.024 (≈ 0.018 µg/mL) | 0.012 (≈ 0.009 µg/mL) | 8 | 8 | 64 | 64 | 0.1 | 0.1 (≈ 0.075 µg/mL) | 0.4 | 6.3 | 0.2 (≈ 0.15 µg/mL) | 0.2 | 0.2 (≈ 0.15 µg/mL) | 13 (≈ 9.75 µg/mL) | 0.024 (≈ 0.018 µg/mL) | 0.1 to 0.4 (≈ 0.075 to 0.3 µg/mL) | 0.2 (≈ 0.15 µg/mL) | 0.024 (≈ 0.018 µg/mL) | 0.1 to 0.4 (≈ 0.075 to 0.3 µg/mL) | MIC (E. coli ATCC 25922; Escherichia coli, ATCC25922, ID-MHBCA + 1 µg/mL supplemental iron): 0.1 µM; MIC ratio unconjugated β-lactam/conjugate (E. coli ATCC 25922; ID-MHBCA): 128; MIC ratio unconjugated β-lactam/conjugate (AMP/BAMP, LOR/BLOR, CEF/MCEF) (E. coli ATCC 25922; MHBCA): 128; MIC ratio unconjugated β-lactam/conjugate (K. pneumoniae ATCC 13883; ID-MHBCA): 16; MIC ratio unconjugated β-lactam/conjugate (K. pneumoniae ATCC 13883; MHBCA): 8; MIC (E. coli Δfiu; MHBCA): 0.1 µM (≈ 0.075 µg/mL); MIC (E. coli ΔampC; Escherichia coli, ID-MHBCA): 0.006 µM (≈ 0.0045 µg/mL); MIC (E. coli ΔampC; Escherichia coli, MHBCA): 0.006 µM (≈ 0.0045 µg/mL); MIC (E. coli ΔacrAB; Escherichia coli): 0.012 µM (≈ 0.009 µg/mL); MIC (P. aeruginosa 1020; Pseudomonas aeruginosa, P. aeruginosa 1020, read-out: MIC): 6.3 µM (≈ 4.73 µg/mL); IC50 (PBP2; [8]): 33.9 ± 5.6 µM
N[C@@H](C(=O)N[C@@H]1C(=O)N2C(C(=O)O)=C(Cl)CS[C@H]12)c1ccccc1 [CEF, cefaclor, reference compound] | 3.1 | 3.1 (≈ 1.14 µg/mL) | 3.1 (≈ 1.14 µg/mL) | 1 | 1 | 2 | 2 | 1.6 | 3.1 (≈ 1.14 µg/mL) | 3.1 | 6.3 | 3.1 (≈ 1.14 µg/mL) | 1.6 | 25 (≈ 9.2 µg/mL) | 13 (≈ 4.78 µg/mL) | 13 (≈ 4.78 µg/mL) | 13 (≈ 4.78 µg/mL) |  | 13 (≈ 4.78 µg/mL) | 13 (≈ 4.78 µg/mL) | MIC (E. coli ΔampC; Escherichia coli, ID-MHBCA): 3.1 µM (≈ 1.14 µg/mL); MIC (E. coli ΔampC; Escherichia coli, MHBCA): 3.1 µM (≈ 1.14 µg/mL); MIC (E. coli ΔacrAB; Escherichia coli): 6.3 µM (≈ 2.32 µg/mL); MIC (P. aeruginosa 1020; Pseudomonas aeruginosa, 1020): > 200 µM; IC50 (PBP2): > 50 µM
N[C@@H](C(=O)N[C@@H]1C(=O)N2C(C(=O)O)=C(Cl)CC[C@H]12)c1ccccc1 [LOR, loracarbef, reference compound] |  |  |  | 2 | 2 | 2 | 2 | 1.6 |  |  |  |  | 1.6 |  |  |  |  | 6.3 (≈ 2.2 µg/mL) |  |  | MIC (E. coli ATCC 25922; [9]): 3.1 µM; MIC (E. coli ATCC 25922; [10]): 3.1 µM; MIC (E. coli ATCC 25922; MHBCA (+)): 3.1 µM (≈ 1.08 µg/mL); MIC (E. coli ATCC 25922; iron-deprived ID-MHBCA (−), 0 µg/mL supplemental iron): 1.6 µM (≈ 0.56 µg/mL); MIC (K. pneumoniae ATCC 13883; ID-MHBCA (−), 0 µg/mL supplemental iron): 1.6 µM (≈ 0.56 µg/mL); MIC (K. pneumoniae ATCC 13883; [9]): 1.6 µM; MIC (K. pneumoniae ATCC 13883; [10]): 3.1 µM; MIC (K. pneumoniae ATCC 13883; MHBCA (+)): 1.6 µM (≈ 0.56 µg/mL); MIC (E. coli ΔcirA; ID-MHBCA): 13 µM (≈ 4.55 µg/mL); MIC (E. coli ΔcirA; MHBCA): 13 µM (≈ 4.55 µg/mL); MIC (E. coli ΔfhuA; ID-MHBCA): 6.3 µM (≈ 2.2 µg/mL); MIC (E. coli Δfiu; ID-MHBCA): 6.3 µM (≈ 2.2 µg/mL); MIC (E. coli Δfiu; MHBCA): 6.3 µM (≈ 2.2 µg/mL); MIC (E. coli ΔampC; ID-MHBCA): 3.1 µM (≈ 1.08 µg/mL); MIC (E. coli ΔampC; MHBCA): 3.1 µM (≈ 1.08 µg/mL); MIC (E. coli ΔacrAB; ΔacrAB): 3.1 µM (≈ 1.08 µg/mL); MIC (P. aeruginosa 1020; P. aeruginosa 1020, read-out: MIC): > 200 µM; IC50 (PBP2; [8]): > 50 µM
